Tested on: IFN-β
Assay: IFN-β concentration in culture supernatant of LPS-stimulated Raw264.7 cells (ELISA)
Format: cell-based
Details: PIPA 1, 3 or 10 μM 24 h, then LPS 20 ng/mL 16 h
Experimental: Raw264.7 cells, a macrophage cell line, were seeded on a 96-well plate at a cell density of 2×10^4 cells/well, and were then culture for 8 hours for adhesion. Thereafter, IRF-PIPA was added to the cultured cells to final concentrations of 1, 3, or 10 μM. After completion of the culture for 24 hours, LPS was added to the cultured cells to a final concentration of 20 ng/mL, and the obtained mixture was then cultured for 16 hours, followed by the recovery of the supernatant. The supernatant was 2-fold diluted with 1% BSA-PBS, and the IFN-β concentration was then measured by ELISA.
Raw264.7 cells, a cell line, were purchased from RIKEN Cell Bank, and were then cultured using D-MEM (Nacalai Tesque) containing 10% FBS (SIGMA-ALDRICH) and Penicillin-Streptomycin mixed solution (Nacalai Tesque).
2×10^4 Raw264.7 cells were seeded on a plate, and were then treated with IRF-PIPA 1, IRF-PIPA 2, IRF-PIPA 3 or IRF-PIPA 4 for 24 hours. Thereafter, the cells were stimulated with LPS (Lipopolysaccharide, SIGMA-ALDRICH) for 16 hours, and the culture supernatant was then recovered. The concentration of cytokine in the culture supernatant was measured using ELISA kit (R&D SYSTEMS) according to the standard protocols. The culture supernatant was diluted with 1% BSA-PBS, as necessary, and was then analyzed. 2.5×10^5 Mouse peritoneal macrophages were seeded on a plate, and were then treated with IRF-PIPA 3 for 16 or 24 hours. Thereafter, the cells were stimulated with Poly(I:C) (InvivoGen) for 16 hours or with mRNA vaccine (Moderna) for 20 to 24 hours, and the culture supernatant was then recovered. The concentration of cytokine in the culture supernatant was measured using ELISA kit (R&D SYSTEMS) according to the same standard protocols. On the other hand, the concentration of cytokine in mouse plasma was measured by administering 400 μg/mouse IRF-PIPA 3 into the abdominal cavity of wild-type mice, then administering 250 μg of Poly(I:C) into the same abdominal cavity 24 hours after the IRF-PIPA 3 administration, then collecting blood further 2 hours after the Poly(I:C) administration, and then measuring the cytokine concentration in the plasma using ELISA kit (R&D SYSTEMS) according to standard protocols.

Row | Structure (SMILES) | concentration dependence of suppression of IFN-β production
1 | CC(=O)Nc1cn(C)c(C(=O)Nc2cc(C(=O)NCCC(=O)Nc3cc(C(=O)Nc4cn(C)c(C(=O)NCCCC(=O)Nc5cc(C(=O)Nc6cc(C(=O)NCCC(=O)Nc7cc(C(=O)Nc8cc(C(=O)NCCCN(C)C)n(C)c8)n(C)c7)n(C)c6)n(C)c5)n4)n(C)c3)n(C)c2)n1 [IRF-PIPA 1] | concentration dependence was not observed
2 | CC(=O)Nc1cn(C)c(C(=O)Nc2cc(C(=O)NCCC(=O)Nc3cc(C(=O)Nc4cc(C(=O)NCCCC(=O)Nc5cn(C)c(C(=O)Nc6cc(C(=O)NCCC(=O)Nc7cc(C(=O)Nc8cc(C(=O)NCCCN(C)C)n(C)c8)n(C)c7)n(C)c6)n5)n(C)c4)n(C)c3)n(C)c2)n1 [IRF-PIPA 2] | concentration dependence was not observed

Reference: patent US20250268931A1, “TRANSCRIPTIONAL INHIBITOR FOR IMMUNE-RELATED GENE” (The University of Tokyo, priority 2022, published 2025)
